Data from ChEMBL document CHEMBL1821672, “Indolin-2-one p38α inhibitors II: Lead optimisation” (Bioorg Med Chem Lett, 2011).
In brackets after ≈: the same amount, converted by molar mass.

How the values were obtained:
[1] = Metabolic stability in rat hepatic microsomes assessed as compound turnover at 5 uM in presence of NADPH after 30 mins; type: ADME; conditions: liver microsomes, read-out: Activity
[2] = Cmax in rat at 1 mg/kg, iv; type: ADME, organism-based; design: dose 1 mg/kg, route intravenous; conditions: in vivo
[3] = Mean residence time in rat at 1 mg/kg, iv; type: ADME, organism-based; design: dose 1 mg/kg, route intravenous; conditions: in vivo
[4] = target: T1, Mitogen-activated protein kinase 14 (Homo sapiens, UniProt Q16539); assay: Inhibition of p38alpha in human whole blood assessed as reduction in TNF-alpha production by ELISA
T1 sequence (Q16539 whole entry): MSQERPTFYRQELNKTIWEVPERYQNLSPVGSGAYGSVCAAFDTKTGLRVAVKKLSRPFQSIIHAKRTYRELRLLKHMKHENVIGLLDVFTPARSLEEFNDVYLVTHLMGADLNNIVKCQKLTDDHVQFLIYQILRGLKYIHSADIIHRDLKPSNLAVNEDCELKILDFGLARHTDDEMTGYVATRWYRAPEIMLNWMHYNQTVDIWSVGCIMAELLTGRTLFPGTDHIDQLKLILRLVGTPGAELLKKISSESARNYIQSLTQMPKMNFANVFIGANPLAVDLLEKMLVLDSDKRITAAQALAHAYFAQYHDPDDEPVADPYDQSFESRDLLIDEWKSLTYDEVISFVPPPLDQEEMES

[5] = Metabolic stability in rat hepatic microsomes assessed as compound turnover at 5 uM in absence of NADPH after 30 mins; type: ADME; conditions: liver microsomes, read-out: Activity
Caco-2 [6] = assay: (§1) Apparent permeability from apical to basolateral side of the human Caco2 cells; type: ADME, cell-based
[7] = Terminal half life in rat at 1 mg/kg, iv; type: ADME, organism-based; design: dose 1 mg/kg, route intravenous; conditions: in vivo, read-out: beta t1/2 (converted)
[8] = AUC (0 to infinity) in rat at 1 mg/kg, iv; type: ADME, organism-based; design: time infinity, dose 1 mg/kg, route intravenous; conditions: plasma
[9] = Clearance in rat at 1 mg/kg, iv; type: ADME, organism-based; design: dose 1 mg/kg, route intravenous; conditions: in vivo
[10] = Volume of distribution at steady state in rat at 1 mg/kg, iv; type: ADME, organism-based; design: dose 1 mg/kg, route intravenous; conditions: in vivo, read-out: Vdss
[11] = Metabolic stability in human hepatic microsomes assessed as compound turnover at 5 uM in presence of NADPH after 30 mins; type: ADME; conditions: liver microsomes, read-out: Activity
CHO = assay: Cytotoxicity against CHO cells; type: cell-based; conditions: Cricetulus griseus
Caco-2 [12] = assay: (§2) Apparent permeability from basolateral to apical side of human Caco2 cells; type: ADME, cell-based
[13] = Metabolic stability in human hepatic microsomes assessed as compound turnover at 5 uM in absence of NADPH after 30 mins; type: ADME; conditions: liver microsomes, read-out: Activity
[14] = target: T1, Mitogen-activated protein kinase 14; assay: Inhibition of human p38alpha using biotinylated ATF2 substrate by FRET assay
[15] = Cytotoxicity against CHO cells at 200 uM; type: cell-based, Cricetulus griseus; conditions: chinese hamster, read-out: INH
[16] = AUC (0 to infinity) in rat at 10 mg/kg, po; type: ADME, organism-based; design: time infinity, dose 10 mg/kg, route oral; conditions: plasma
[17] = Solubility in aqueous media at pH 7.4; type: physicochemical
[18] = Cmax in rat at 10 mg/kg, po; type: ADME, organism-based; design: dose 10 mg/kg, route oral; conditions: in vivo
[19] = target: RAF proto-oncogene serine/threonine-protein kinase (Homo sapiens, UniProt P04049); assay: Inhibition of human c-RAF
RAF proto-oncogene serine/threonine-protein kinase, sequence (P04049 whole entry): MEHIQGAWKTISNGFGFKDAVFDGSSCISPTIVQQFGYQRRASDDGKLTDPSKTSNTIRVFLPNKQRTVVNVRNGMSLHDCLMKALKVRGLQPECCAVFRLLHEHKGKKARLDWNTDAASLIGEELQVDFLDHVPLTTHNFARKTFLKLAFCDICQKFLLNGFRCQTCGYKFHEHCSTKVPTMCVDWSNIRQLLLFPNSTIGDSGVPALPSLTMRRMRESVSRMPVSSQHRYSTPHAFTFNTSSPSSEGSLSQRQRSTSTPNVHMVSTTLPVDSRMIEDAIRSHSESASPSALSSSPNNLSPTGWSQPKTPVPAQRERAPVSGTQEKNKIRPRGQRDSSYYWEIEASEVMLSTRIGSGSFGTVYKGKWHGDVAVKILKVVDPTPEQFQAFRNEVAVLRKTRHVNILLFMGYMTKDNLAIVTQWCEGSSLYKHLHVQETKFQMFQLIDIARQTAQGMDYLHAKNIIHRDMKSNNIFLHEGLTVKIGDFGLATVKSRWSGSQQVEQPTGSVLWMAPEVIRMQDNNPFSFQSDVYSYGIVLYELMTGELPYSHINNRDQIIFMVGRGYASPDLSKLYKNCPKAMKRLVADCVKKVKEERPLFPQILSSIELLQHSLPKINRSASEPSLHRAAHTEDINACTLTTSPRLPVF

[20] = Oral bioavailability in rat at 10 mg/kg; type: ADME, organism-based; conditions: in vivo
Rattus norvegicus = species: Rattus norvegicus; assay: Hepatic blood flow in rat; type: ADME, organism-based, Liver
[21] = as §1; type: ADME, cell-based; conditions: caco-2
[22] = as §2; type: ADME, cell-based; conditions: caco-2

Structure (SMILES)	metabolised at 0.5 h, 5 µM [1] [%]	IC50 [4] [nM]	metabolised at 0.5 h, 5 µM [5] [%]	Papp (Caco-2 [6])	metabolised at 0.5 h, 5 µM [11] [%]	Papp (Caco-2 [12])	metabolised at 0.5 h, 5 µM [13] [%]	IC50 [14] [nM]	further results
Cc1ccc(C(=O)NC2CC2)cc1-c1ccc2c(n1)NC(=O)C21CCCC1	33	128	11	permeable	19	permeable	16	–	IC50 (CHO): 58 µM
Cc1ccc(C(=O)NC2CC2)cc1-c1cnc2c(c1)NC(=O)C21CCCC1	16	69	< 5	permeable	19	permeable	10	1.8	cytotoxicity at 200 µM [15]: 62%; IC50 [19]: 105 nM
Cc1c(F)cc(C(=O)NC2CC2)cc1-c1ccc2c(c1)NC(=O)C21CCN(S(C)(=O)=O)CC1	18	20	< 5	permeable	36	permeable	53	–	–
Cc1ccc(C(=O)NC2CC2)cc1-c1ccc2c(c1)NC(=O)C21CCN(C)CC1	13	9.6	–	permeable	15	permeable	17	–	Cmax [2]: 133 ng/mL; MRT [3]: 4.3 h; AUC(0-inf) [16]: 786 ng·h/mL; half-life [7]: 306 min; AUC(0-inf) [8]: 226 ng·h/mL; clearance [9]: 73.3 mL/min/kg; Cmax [18]: 134 ng/mL; Vd [10]: 19.1 L/kg; QH (Rattus norvegicus): > 85%; cytotoxicity at 200 µM [15]: 40%; bioavailability [20]: 35%
Cc1ccc(C(=O)NC2CC2)cc1-c1cc2c(cn1)C1(CCCC1)C(=O)N2	21	64	< 5	permeable	10	permeable	< 5	–	cytotoxicity at 200 µM [15]: 29%
Cc1ccc(C(=O)NC2CC2)cc1-c1cnc2c(c1)NC(=O)C2(C)C	2	544	< 5	permeable	8	permeable	7	–	–
Cc1ccc(C(=O)NC2CC2)cc1-c1ccc2c(c1)NC(=O)C2(CCO)CCO	–	–	–	permeable	–	permeable	–	4570	–
Cc1ccc(C(=O)NC2CC2)cc1-c1cnc2c(c1)NC(=O)C21CCC(F)(F)CC1	19	188	< 5	permeable	1	permeable	< 5	2.3	IC50 (CHO): 49 µM
Cc1ccc(C(=O)NC2CC2)cc1-c1cnc2c(c1)NC(=O)C21CCCC1.Cl	–	–	–	–	–	–	–	–	Cmax [2]: 1240 ng/mL; MRT [3]: 2.2 h; AUC(0-inf) [16]: 12000 ng·h/mL; half-life [7]: 234 min; AUC(0-inf) [8]: 1850 ng·h/mL; clearance [9]: 10 mL/min/kg; Cmax [18]: 4620 ng/mL; Vd [10]: 1.2 L/kg; bioavailability [20]: 65%
Cc1ccc(C(=O)NC2CC2)cc1-c1ncc2c(n1)NC(=O)C21CCCC1	–	1100	–	permeable	–	permeable	–	–	–

More lines, main results first:

metabolised at 0.5 h, 5 µM [1] [%]	IC50 [4] [nM]	metabolised at 0.5 h, 5 µM [5] [%]	Papp (Caco-2 [6])	metabolised at 0.5 h, 5 µM [11] [%]	Papp (Caco-2 [12])	metabolised at 0.5 h, 5 µM [13] [%]	IC50 [14] [nM]	Structure (SMILES)	further results
< 5	10	< 5	permeable	< 5	permeable	< 5	–	Cc1ccc(C(=O)NC2CC2)cc1-c1ccc2c(c1)NC(=O)C21CCC(F)(F)CC1	Cmax [2]: 436 ng/mL; MRT [3]: 21 h; half-life [7]: 864 min; AUC(0-inf) [8]: 5020 ng·h/mL; clearance [9]: 3.33 mL/min/kg; Vd [10]: 4.2 L/kg; IC50 (CHO): 7 µM
15	11	7	permeable	40	permeable	61	1.4	Cc1ccc(C(=O)NC2CC2)cc1-c1ccc2c(c1)NC(=O)[C@]21CC[C@H](O)CC1	–
30	150	< 5	permeable	29	permeable	11	7.4	Cc1ncc(C(=O)NC2CC2)cc1-c1ccc2c(c1)NC(=O)C21CCCC1	cytotoxicity at 200 µM [15]: 68%
44	–	< 5	permeable	–	permeable	–	–	Cc1ccc(C(=O)NC2CC2)cc1-c1ccc2c(c1)NC(=O)C21CCCC1	MRT [3]: 2.1 h; AUC(0-inf) [16]: 2640 ng·h/mL; solubility [17]: 3 µg/mL (≈ 8.32 µM)
16	14	< 5	permeable	34	permeable	40	1.65	Cc1ccc(C(=O)NC2CC2)cc1-c1ccc2c(c1)NC(=O)C21CCOCC1	Cmax [2]: 1530 ng/mL; MRT [3]: 2.2 h; AUC(0-inf) [16]: 10400 ng·h/mL; half-life [7]: 162 min; AUC(0-inf) [8]: 2770 ng·h/mL; clearance [9]: 6.67 mL/min/kg; Cmax [18]: 1310 ng/mL; Vd [10]: 0.8 L/kg; IC50 [19]: 120 nM; bioavailability [20]: 40%
0	75	< 5	–	5	–	11	–	Cc1ccc(C(=O)NC2CC2)cc1-c1ccc2c(c1)NC(=O)C21CCS(=O)(=O)CC1	Papp A→B [21]: 4 ×10⁻⁶ cm/s; Papp B→A [22]: 25 ×10⁻⁶ cm/s
14	4.9	< 5	permeable	17	permeable	17	0.9	Cc1ccc(C(=O)Nc2ccon2)cc1-c1ccc2c(c1)NC(=O)C21CCC(F)(F)CC1	–
47	–	< 5	permeable	57	permeable	29	–	Cc1ccc(C(=O)NC2CC2)cc1-c1ccc2c(c1)NC(=O)C21CCCCC1	–
97	16	< 5	permeable	72	permeable	41	0.08	Cc1ccc(C(=O)NC2CC2)cc1-c1ccc2c(c1)NC(=O)C21CCSCC1	IC50 (CHO): 16 µM
2	5	< 5	permeable	65	permeable	81	1.4	Cc1ccc(C(=O)NC2CC2)cc1-c1ccc2c(c1)NC(=O)[C@]21CC[C@@H](O)CC1	–
0	86	5	permeable	8	permeable	16	–	Cc1ccc(C(=O)NC2CC2)cc1-c1cnc2c(c1)NC(=O)C21CCOCC1	cytotoxicity at 200 µM [15]: 36%
23	7	< 5	permeable	74	permeable	72	0.09	Cc1ccc(C(=O)Nc2ccon2)cc1-c1ccc2c(c1)NC(=O)C21CCOCC1	–
